Measurements published in patent US20060100155A1, “Method for the therapeutic management of endometriosis” (priority 1999, published 2006).
Non-standard residues stand in square brackets, D forms with d. Residues, ends and D or L forms follow the SMILES beside them. dPhe(4-Cl) = N[C@H](Cc1ccc(Cl)cc1)C(=O)O; d2Nal = N[C@H](Cc1ccc2ccccc2c1)C(=O)O; dCit = NC(=O)NCCC[C@@H](N)C(=O)O; d3Pal = N[C@H](Cc1cccnc1)C(=O)O

Tested on: patients with confirmed endometriosis
Experiment: Weekly s.c. administration of 3 mg LHRH antagonist for 8 weeks to patients with confirmed endometriosis
Type: in vivo, human
Conditions: for hot flushes or other (estradiol) withdrawal symptoms / proliferation of the endometrium (histological biopsies): 3 mg weekly for 8 weeks; for proliferation of the endometrium (histological biopsies): at the end of treatment
Experimental: The weekly administration of an adequate dose of an LHRH antagonist, e.g. 3 mg Cetrotide® s.c./per week over a period of eight weeks leads to a controlled suppression of estrogen secretion so that serum concentrations between about 35 pg/ml and about 80 pg/ml, preferably between about 45-75 pg/ml, more preferably between about 50-75 pg/ml are obtained. […] Also the development of osteoporosis can be avoided.

CC(=O)N[C@H](Cc1ccc2ccccc2c1)C(=O)N[C@H](Cc1ccc(Cl)cc1)C(=O)N[C@H](Cc1cccnc1)C(=O)N[C@@H](CO)C(=O)N[C@@H](Cc1ccc(O)cc1)C(=O)N[C@H](CCCNC(N)=O)C(=O)N[C@@H](CC(C)C)C(=O)N[C@@H](CCCNC(=N)N)C(=O)N1CCC[C@H]1C(=O)N[C@H](C)C(N)=O [Cetrorelix acetate] (Ac-[d2Nal][dPhe(4-Cl)][d3Pal]SY[dCit]LRP[dA]-NH2)
ovarian cyst formation (3 mg s.c. weekly for 8 weeks): No ovarian cyst formation occurred | progress of the disease confirmed by 2nd look laparascopy (3 mg s.c. weekly for 8 weeks): without any progress of the disease | hot flushes or other (estradiol) withdrawal symptoms: avoiding any hot flushes or other withdrawal symptoms | proliferation of the endometrium (histological biopsies): no proliferation of the endometrium | proliferation of the endometrium (histological biopsies) (listed as Cetrorelix): without proliferation of the endometrium | hot flushes or other (estradiol) withdrawal symptoms (listed as Cetrorelix): without any signs of estradiol withdrawal symptoms
